Test results taken from patent US20240398737A1, “FUNCTIONALIZED LONG-CHAIN HYDROCARBON MONO- AND DI-CARBOXYLIC ACIDS AND DERIVATIVES THEREOF, AND THEIR USE FOR THE PREVENTION OR TREATMENT OF DISEASE” (Espervita Therapeutics, Inc., priority 2021, published 2024).
Entries after “also recorded” stand apart in the source; their conditions may differ.

Experiments:
female Wistar Han rats = experiment: 4-day oral gavage toxicity study in female rats; conditions: 4 days; for Compound-related effects in hematology or coagulation test results / Compound-related mortality, clinical observations, body weight effects, or changes in food consumption: 100 or 300 mg/kg/day oral gavage once daily; for Compound-related macroscopic observations: 100 or 300 mg/kg/day
[1] = Single and repeat dose plasma and tissue pharmacokinetics in male C57BL/6 mice; format: in vivo, mouse; conditions: for Bioavailability in brain compared to liver (fold lower): 20 mg/kg PO, male C57BL/6 mice; for Cmax / Tmax / AUC(0-t): male, C57BL/6, mouse, po
Description: Materials and methods. The study involved two arms: a single dose pharmacokinetic study and a 4-day repeated-dose pharmacokinetic study. For each arm, 56 inbred male C57BL/6 mice, aged at 6-7 week, were included. All animals were purchased from Charles River Lab (CRL, MA). Upon their arrival, they were kept in special-pathogen-free environment all the time. Briefly, they were housed in group on corncob bedding (ScottPharma, MA) in Innovive® caging system (Innovive, CA) on a 12-hour light-dark cycle (0700-1900) at 68-74° F. and 30-70% humidity. They were allowed continually to access water and regular rodent Purina 5001 diet (ScottPharma, MA) ad libitum and to acclimate in the facility for 5 days. Animal handling and procedures were conducted under the protocols and/or guidelines approved by the Institutional Animal Care and Use Committee (IACUC) of […] Biosciences, Inc. […] Also, 2× drug vehicle (3% CMC+0.4% Tween-20) was prepared and stored at 4° C. for a week. On the day of injection, 1 ml frozen 2× aqueous stock solution (20 mg/ml drug solution) aliquot is thawed and mix with another 1 ml 2× drug vehicle (3% Carboxymethyl cellulose+0.4% Tween 20) to prepare 10 mg/ml drug solution. A 25 g mouse would receive 250 μl of 10 mg/ml solution for a dose of 100 mg/kg. Lower concentrations can be achieved by further diluting the 10 mg/ml in 1× vehicle solution with 1× vehicle prepared with milliQ water. On each dosing day, both compound stocks and 2× vehicle were warmed to room temperature and was mixed at 1:1 ratio, given to a concentration of 10 mg/mL. Then 1:5-fold dilutions were obtained with 1× vehicle to 2 mg/mL. Dosing volume at 10 mL/kg (final dosage: 20 mg/kg) in the morning. Route of administration is oral gavage (volume of 10 ml/kg body weight). Study Design. In each group 4 male 6-7-week-old C57BL/6 mice were used. Doses were administered once daily via oral gavage for either a day (single dose arm, QDx1) or 4 consecutive days (repeated dose arm, QDx4) (FIG. 24). Blood, half of brain hemisphere, and one lobe of liver samples were collected from all animals of Day 1 (QDx1 arm) at pre-dose and 0.25, 2, 4, 8, 24 and 36 hours post dose, or Day 4 (QDx4 arm) at pre-dose and 0.25, 2, 4, 8, 24 and 48 hours post dose. Blood samples were collected by cardiac puncture. The blood samples were maintained in wet ice first and centrifuged to obtain plasma (2000×g, 4° C., 5 min). All three samples from each mouse were analyzed for either Compound I-1 or Compound I-32 contents by Integrated Analytical Solutions (Berkeley, CA) and the results were used for the generation of the pharmacokinetic graphs. Sample collection, storage, bioanalysis and statistical analysis. All plasma and tissue samples were analyzed by discovery grade bioanalytical method developed for estimation of each test compound in plasma and tissue samples using LC-MS/MS systems. Plasma samples were prepared as follows. Three volumes of acetonitrile containing internal standard was added to one volume of plasma to precipitate proteins. Samples were centrifuged (3000×g for 10 min) and supernatant removed for analysis by LC-MS/MS. Calibration standards and quality controls were made by preparation of a 1 mg/mL stock solution in MeOH and subsequently a series of working solutions in MeOH:water (1:1, v/v) which were spiked into blank plasma to yield a series of calibration standard samples in the range of 1.0 ng/mL to 10 μg/mL. All incurred PK/PD plasma samples were treated identically to the calibration standards and quality control samples. LC-MS/MS analysis was performed utilizing multiple reaction monitoring for detection of characteristic ions for each drug candidate, additional related analytes and internal standard. Tissue samples were prepared as follows. Three volumes of PBS buffer (pH 7.4) were added to one volume of each tissue sample which was then homogenized to obtain each tissue homogenate sample. […]

FLT1/VEGFR1 = FLT1/VEGFR1 (Homo sapiens (Human), UniProt P17948); experiment: Wild type kinase screen: FLT1/VEGFR1; format: biochemical; conditions: compound at 10 μM, 10 μM ATP, Data 1 and Data 2 duplicates
[2] = brain, 20 mg/kg/day, mouse brain, 20 mg/kg/day PO, 4 consecutive days (QD × 4)
[3] = brain, 20 mg/kg/day, mouse brain, 20 mg/kg/day PO, single dose (QD × 1)
[4] = liver, 20 mg/kg/day, mouse liver, 20 mg/kg/day PO, 4 consecutive days (QD × 4)
[5] = liver, 20 mg/kg/day, mouse liver, 20 mg/kg/day PO, single dose (QD × 1)
[6] = plasma, 20 mg/kg/day, mouse plasma, 20 mg/kg/day PO, 4 consecutive days (QD × 4)
[7] = plasma, 20 mg/kg/day, mouse plasma, 20 mg/kg/day PO, single dose (QD × 1)
[8] = mouse brain, 20 mg/kg/day PO, 4 consecutive days (QD × 4)
[9] = mouse brain, 20 mg/kg/day PO, single dose (QD × 1)
[10] = mouse liver, 20 mg/kg/day PO, 4 consecutive days (QD × 4)
[11] = mouse liver, 20 mg/kg/day PO, single dose (QD × 1)
[12] = brain, 20 mg/kg, mouse brain, QD × 1, value in parentheses marked * (reanalysis per footnote of Tables 8-9)
[13] = brain, 20 mg/kg, mouse brain, QD × 4, value in parentheses marked * (reanalysis per footnote of Tables 8-9)
[14] = liver, 20 mg/kg, mouse liver, QD × 1, value in parentheses: timepoint 0.25 h samples after reanalysis
[15] = liver, 20 mg/kg, mouse liver, QD × 4, value in parentheses: timepoint 0.25 h samples after reanalysis
[16] = plasma, 20 mg/kg, mouse plasma, QD × 1, value in parentheses: timepoint 0.25 h samples after reanalysis
[17] = plasma, 20 mg/kg, mouse plasma, QD × 4, value in parentheses: timepoint 0.25 h samples after reanalysis

Sequence of FLT1/VEGFR1 (P17948 27-1338): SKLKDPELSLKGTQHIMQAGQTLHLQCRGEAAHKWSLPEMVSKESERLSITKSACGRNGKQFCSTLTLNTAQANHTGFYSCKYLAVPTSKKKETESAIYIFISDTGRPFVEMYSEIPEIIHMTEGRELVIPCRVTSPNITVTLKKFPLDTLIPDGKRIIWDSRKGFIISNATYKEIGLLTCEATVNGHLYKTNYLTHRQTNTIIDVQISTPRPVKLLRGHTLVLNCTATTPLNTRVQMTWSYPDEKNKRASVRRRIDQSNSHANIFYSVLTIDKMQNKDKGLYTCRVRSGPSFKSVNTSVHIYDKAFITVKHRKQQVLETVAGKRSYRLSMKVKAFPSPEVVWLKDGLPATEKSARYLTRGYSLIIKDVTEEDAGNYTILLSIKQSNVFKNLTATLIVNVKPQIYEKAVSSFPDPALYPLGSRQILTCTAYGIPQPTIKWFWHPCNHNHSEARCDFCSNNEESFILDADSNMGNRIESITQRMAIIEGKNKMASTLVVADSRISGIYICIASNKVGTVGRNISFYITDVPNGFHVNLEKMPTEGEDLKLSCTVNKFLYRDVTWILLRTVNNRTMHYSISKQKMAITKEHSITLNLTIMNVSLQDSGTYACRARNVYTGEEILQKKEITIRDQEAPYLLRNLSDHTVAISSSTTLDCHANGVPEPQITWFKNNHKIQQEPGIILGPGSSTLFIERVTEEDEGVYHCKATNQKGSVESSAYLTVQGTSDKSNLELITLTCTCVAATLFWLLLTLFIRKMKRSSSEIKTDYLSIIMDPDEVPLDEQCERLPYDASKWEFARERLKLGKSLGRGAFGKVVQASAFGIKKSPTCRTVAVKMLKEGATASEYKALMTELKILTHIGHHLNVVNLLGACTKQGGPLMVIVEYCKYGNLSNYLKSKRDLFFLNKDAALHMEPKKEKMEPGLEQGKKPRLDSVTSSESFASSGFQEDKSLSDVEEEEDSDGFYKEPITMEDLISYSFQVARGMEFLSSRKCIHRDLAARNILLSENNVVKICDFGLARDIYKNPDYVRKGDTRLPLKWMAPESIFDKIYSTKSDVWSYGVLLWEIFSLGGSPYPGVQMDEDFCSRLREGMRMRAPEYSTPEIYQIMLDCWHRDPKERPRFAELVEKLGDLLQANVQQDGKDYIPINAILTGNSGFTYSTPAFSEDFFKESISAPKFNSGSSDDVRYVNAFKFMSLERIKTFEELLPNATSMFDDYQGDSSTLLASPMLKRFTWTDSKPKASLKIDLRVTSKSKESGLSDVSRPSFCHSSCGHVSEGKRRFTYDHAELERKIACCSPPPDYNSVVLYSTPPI

**Q.** For CC(C)(CCCCc1cccc(CCCCC(C)(C)C(=O)O)c1)C(=O)O [Compound I-32, 6-[3-(5-carboxy-5-methylhexyl)-phenyl]-2,2-dimethylhexanoic acid], which “Adversity of the effects at this dose” value (female Wistar Han rats; 300 mg/kg/day) is on record?
**A.** nonadverse

**Q.** What about the “Albumin:globulin ratio (clinical chemistry)” value (female Wistar Han rats; 300 mg/kg/day) of the same compound?
**A.** minimally higher

**Q.** And the “Globulin concentration (clinical chemistry)” value (female Wistar Han rats; 300 mg/kg/day)?
**A.** minimally lower

**Q.** What about the Liver microscopic findings (female Wistar Han rats; 300 mg/kg/day) of the same compound?
**A.** increase in mitoses in hepatocytes; also recorded: periportal hepatocyte vacuolation

**Q.** And the “Serum urea nitrogen concentration” value (female Wistar Han rats; 300 mg/kg/day, considered potentially compound-related)?
**A.** Minimally lower

**Q.** And the “Compound-related effects in hematology or coagulation test results” value (female Wistar Han rats)?
**A.** No

**Q.** And the “Compound-related mortality, clinical observations, body weight effects, or changes in food consumption” value (female Wistar Han rats)?
**A.** No

**Q.** What about the Compound-related macroscopic observations (female Wistar Han rats) of the same compound?
**A.** No

**Q.** And the “Bioavailability in brain compared to liver (fold lower)” value [1]?
**A.** 300-400 fold

**Q.** What about the Cmax [1, 2] of the same compound?
**A.** 604 ng/g

**Q.** What about the Tmax [1, 2] of the same compound?
**A.** 240 min

**Q.** And the Cmax [1, 3]?
**A.** 362 ng/g

**Q.** And the Tmax [1, 3]?
**A.** 120 min

**Q.** And the Cmax [1, 4]?
**A.** 43000 ng/g

**Q.** And the Tmax [1, 4]?
**A.** 240 min

**Q.** What about the Cmax [1, 5] of the same compound?
**A.** 25100 ng/g

**Q.** What about the Tmax [1, 5] of the same compound?
**A.** 120 min

**Q.** What about the AUC(0-t) [1, 6] of the same compound?
**A.** 758 µg·h/mL

**Q.** And the Cmax [1, 6]?
**A.** 76.5 µg/mL

**Q.** What about the Tmax [1, 6] of the same compound?
**A.** 240 min

**Q.** What about the AUC(0-t) [1, 7] of the same compound?
**A.** 240 µg·h/mL

**Q.** And the Cmax [1, 7]?
**A.** 50.2 µg/mL

**Q.** What about the Tmax [1, 7] of the same compound?
**A.** 120 min

**Q.** And the “AUC0-t (h*ng/g)” value [1, 8]?
**A.** 6,304 h*ng/g

**Q.** And the “AUC0-t (h*ng/g)” value [1, 9]?
**A.** 1,527 h*ng/g

**Q.** And the “AUC0-t (h*ng/g)” value [1, 10]?
**A.** 100,6991 h*ng/g

**Q.** What about the “AUC0-t (h*ng/g)” value [1, 11] of the same compound?
**A.** 405,934 h*ng/g

**Q.** And the “% Enzyme Activity (relative to DMSO controls)” value (FLT1/VEGFR1)?
**A.** 91.15%

**Q.** Which results are given for CC(C)(CCCCc1ccc(CCCCC(C)(C)C(=O)O)cc1)C(=O)O [Compound I-1, 6-[4-(5-carboxy-5-methylhexyl)-phenyl]-2,2-dimethylhexanoic acid]?
**A.** Adversity of the effects at this dose (female Wistar Han rats; 100 mg/kg/day): nonadverse; Albumin:globulin ratio (clinical chemistry) (female Wistar Han rats; 100 mg/kg/day): minimally higher; Globulin concentration (clinical chemistry) (female Wistar Han rats; 100 mg/kg/day): minimally lower; Adversity of the effects at this dose (female Wistar Han rats; 300 mg/kg/day): adverse; Albumin:globulin ratio (clinical chemistry) (female Wistar Han rats; 300 mg/kg/day): minimally higher; Globulin concentration (clinical chemistry) (female Wistar Han rats; 300 mg/kg/day): minimally lower; Kidney microscopic findings (female Wistar Han rats; 300 mg/kg/day): tubular degeneration/necrosis, tubular regeneration, and increased mitoses; Compound-related effects in hematology or coagulation test results (female Wistar Han rats): No; Compound-related mortality, clinical observations, body weight effects, or changes in food consumption (female Wistar Han rats): No; Compound-related macroscopic observations (female Wistar Han rats): No; Liver microscopic findings (female Wistar Han rats; >100 mg/kg/day (so in the source)): increase in mitoses in hepatocytes; Bioavailability in brain compared to liver (fold lower) [1]: 300-400 fold; Cmax [1, 12]: 1020 ng/g; Tmax [1, 12]: 15 min; Cmax [1, 13]: 1390 ng/g; Tmax [1, 13]: 15 min; Cmax [1, 2]: 168 ng/g; Tmax [1, 2]: 240 min; Cmax [1, 3]: 492 ng/g; Tmax [1, 3]: 120 min; Cmax [1, 14]: 21500 ng/g; Tmax [1, 14]: 15 min; Cmax [1, 15]: 46600 ng/g; Tmax [1, 15]: 15 min; Cmax [1, 4]: 30900 ng/g; Tmax [1, 4]: 15 min; Cmax [1, 5]: 27000 ng/g; Tmax [1, 5]: 15 min; AUC(0-t) [1, 16]: 1670 µg·h/mL; Cmax [1, 16]: 90 µg/mL; Tmax [1, 16]: 15 min; AUC(0-t) [1, 17]: 1090 µg·h/mL; Cmax [1, 17]: 76.1 µg/mL; Tmax [1, 17]: 15 min; AUC(0-t) [1, 6]: 1170 µg·h/mL; Cmax [1, 6]: 102 µg/mL; Tmax [1, 6]: 15 min; AUC(0-t) [1, 7]: 1380 µg·h/mL; Cmax [1, 7]: 102 µg/mL; Tmax [1, 7]: 15 min; AUC0-t (h*ng/g) [1, 8]: 1,220 h*ng/g; AUC0-t (h*ng/g) [1, 9]: 1,183 h*ng/g; AUC0-t (h*ng/g) ([1]; mouse brain, QD × 1, value in parentheses marked * (reanalysis per footnote of Tables 8-9)): (2,091)* h*ng/g; AUC0-t (h*ng/g) ([1]; mouse brain, QD × 4, value in parentheses marked * (reanalysis per footnote of Tables 8-9)): (3,995)* h*ng/g; AUC0-t (h*ng/g) [1, 10]: 687,414 h*ng/g; AUC0-t (h*ng/g) [1, 11]: 425,184 h*ng/g; AUC0-t (h*ng/g) ([1]; mouse liver, QD × 1, value in parentheses: timepoint 0.25 h samples after reanalysis): (469,726)* h*ng/g; AUC0-t (h*ng/g) ([1]; mouse liver, QD × 4, value in parentheses: timepoint 0.25 h samples after reanalysis): (718,455)* h*ng/g; % Enzyme Activity (relative to DMSO controls) (FLT1/VEGFR1): 87.88%
